{"source": "ChEMBL document CHEMBL5233292", "about": "“Biscroyunoid A, an Anti-Hepatic Fibrotic 19-nor-Clerodane Diterpenoid Dimer with a C-16-C-12' Linkage from Croton yunnanensis” (J Nat Prod, 2023)", "key": {"LX2 [1]": {"tested_on": "LX2", "test": "Inhibition of TGF-beta1/Smad2/3 signaling in TGF-beta1-stimulated human LX-2 cells assessed as reduction in Smad3 phosphorylation at 20 to 40 uM by western blot analysis", "format": "cell-based", "conditions": "dose 20-40 µM"}, "[2]": {"test": "Cytotoxicity against human LX2 cells at 20 to 40 uM", "format": "toxicity, cell-based", "conditions": "lx-2, 40 µM, dose 20-40 µM"}, "LX-2 [3]": {"tested_on": "LX-2", "test": "Anti-hepatic fibrosis activity in human LX2 cells assessed as inhibition of TGFbeta1-induced fibronectin expression measured after 48 hrs by immunofluorescence analysis", "format": "functional, cell-based", "conditions": "dose 20-40 µM"}, "LX2 [4]": {"tested_on": "LX2", "test": "Inhibition of TGF-beta1/Smad2/3 signaling in TGF-beta1-stimulated human LX-2 cells assessed as reduction in Smad2/3 translocation from cytoplasm to nucleus at 40 uM by DAPI staining based fluorescence analysis", "format": "cell-based"}, "LX-2 [5]": {"tested_on": "LX-2", "test": "Anti-hepatic fibrosis activity in human LX2 cells assessed as inhibition of TGFbeta1-induced collagen I expression at 20 to 40 uM measured after 48 hrs by western blot analysis", "format": "functional, cell-based", "conditions": "dose 20-40 µM"}, "LX2 [6]": {"tested_on": "LX2", "test": "Inhibition of TGF-beta1/Smad2/3 signaling in TGF-beta1-stimulated human LX-2 cells assessed as reduction in Smad2 phosphorylation at 20 to 40 uM by western blot analysis", "format": "cell-based", "conditions": "dose 20-40 µM"}, "LX-2 [7]": {"tested_on": "LX-2", "test": "Anti-hepatic fibrosis activity in human LX2 cells assessed as inhibition of TGFbeta1-induced alpha-SMA expression at 20 to 40 uM measured after 48 hrs by western blot analysis", "format": "functional, cell-based", "conditions": "dose 20-40 µM"}}, "note": "Activity calls are given as the source filed them. The rule behind the calls is not given here.", "data": [{"smiles": "COC(=O)C1=CC[C@H]2[C@@]3(CC[C@@H](C)[C@]24C[C@@H](c2occc2[C@H]2C[C@@]56[C@H](O2)O[C@]2(CC[C@H]5C)C(C(=O)OC)=CCC[C@H]62)c2ccoc2[C@@H]4O3)C1", "values": [{"measurement": "inhibition", "setting": "LX2 [1]", "result": "Active"}, {"measurement": "Activity", "setting": "[2]", "result": "Non-Toxic"}, {"measurement": "Activity", "setting": "LX-2 [3]", "result": "Dose-Dependent Effect"}, {"measurement": "inhibition", "setting": "LX2 [4]", "result": "Active"}, {"measurement": "Activity", "setting": "LX-2 [5]", "result": "Active"}, {"measurement": "inhibition", "setting": "LX2 [6]", "result": "Active"}, {"measurement": "Activity", "setting": "LX-2 [7]", "result": "Active"}]}]}
